# Assays:
# [1] = system: rumen fluid from live fistulated cows; assay: Fermentation of dried grass with rumen fluid from treated live fistulated cows, 12 hours (Example 11); assay type: in vivo, cow; conditions: 36° C., dark, 1 g dried grass
# Experimental: In this trial, samples of rumen fluid from live fistulated cows were collected, passed through butter muslin (cheese cloth) and the fluid transferred to pre-warmed Thermos™ flasks.
# Six fermentation vessels had 1 g of dried grass added to each.
# Three vessels, the Experimentals, were filled with the rumen fluid from the treated cows. The other three vessels, the controls, were filled with rumen fluid from the untreated cows. All vessels were gently incubated at 36° C. in the dark for 12 hours.
# [2] = system: sheep; assay: Sheep exhalant breath trial after vitamin K1 drench (Douglas Bag type apparatus, Micro GC); assay type: in vivo
# Experimental: The sheep tested in this trial were ewe sheep. In this and all subsequent sheep trials, the sheep were yarded for 24 hours before the trial commenced, so their rumen was at least partially empty since they could not eat when yarded. In total, 60 sheep were tested in similar trials on two different sheep farms. The sheep in each trial were divided randomly into two equal groups, one group being an experimental group and the other group being a control group.
# The sheep were driven into a race and each individual was drenched as they came to the end of the race. Sheep in the experimental group and control group were given a 50 ml drench prior to yard release and normal grazing and behaviour.
# The sheep were let out to feed in a field and allowed to graze on grass freely. They were herded back at intervals and their exhalant breath captured. The breath exhalation of sheep was measured using the apparatus shown in FIG. 4, according to one or more embodiments, being an instrument based on Douglas Bag equipment for the sampling of exhalant breath from humans. Note that the air space in the tubes shown in FIG. 4 is exaggerated in the drawing, according to one or more embodiments. In reality, the air space may be kept to as small a volume as possible to avoid contamination of the exhalant breath with the dead air in the tubes. The gas impermeable bag used for exhalant breath capture must be as big as possible since methane is largely released periodically as a burp rather than in the exhalant breath.
# The apparatus of FIG. 4 was designed specifically for use on sheep, according to one or more embodiments. On inspiration by the sheep, the valve opens and the sheep is able to breath in fresh air. On exhalation by the sheep, the valve closes and the exhaled air is directed in to the gas impermeable balloon. It is important that the balloon used is not expanded by the exhaled air, but is merely collected. Otherwise, back pressure may develop which has the potential to interfere with the breathing of the sheep. The valve could be either a flap valve or a table tennis ball. The latter was identified by the inventor as an ideal light weight valve.
# The breath exhalant collected was analysed using an Agilent Micro GC with 2 dual columns: molecular sieve 5A and Plot-Q columns.
# The six control sheep were drenched with 50 ml of 30% ethyl alcohol plus 50 ml water.
# In this trial, the same trial was completed as in Example 3 above however, in this trial male sheep (rams) were trialed and the exhalant breath of the trial animals was tested over a time period of two days, samples taken on day 0, 1 and 2. Five rams were drenched with vitamin K1 and four rams were not drenched at all and used as controls.
# [3] = system: cow rumen fluid; assay: Fermentation of cow rumen fluid and dried grass (hay) in adjustable pressure fermenter; assay type: cell-based; set-up: reduction of total gas volume compared to controls, average / reduction of total gas volume compared to controls, minimum / methane emission reduction / methane emission reduction, peak / CO2 volume produced by the fermentation, reduction compared to control samples: concentration or dose not given beside the values; conditions: for inhibition of vitamin K1 effects on reducing gas production by grass: Example 2
# Excerpt: The aerial parts of the plants were harvested and allowed to dry for a number of days, the number depend on the weather. When air dry the material was steeped in 30% ethanol for one month or more (up to 3 months). It was important to keep the steep in the dark and to have the steep vessels filled and cover tightly to prevent the entry of air. […] Samples of rumen fluid were collected from either slaughtered cows immediately after slaughter. Samples of rumen fluid were collected from the rumen of these cows by cutting the rumen wall using a sterilised knife and allowing the fluid that exuded from the cut to be collected in a sterilised kidney bowl and held in a Dewar flask at body temperature. The rumen fluid was used within one hour of slaughter. It was passed through cheese cloth or similar to filter out the liquid portion for use in this and further trials. […] The rumen fluid was kept in the dark at a temperature of 36° C. at all times during transport and storage.
# The collected rumen fluid samples were mixed with dried grass (hay) to form control samples. […] The prepared samples were then added to a trial fermenter and fermented over time to determine the total amount of gas produced during the fermentation time period along with the CO2 produced and the methane (CH4) production during the trial time period. The tubes were inspected periodically until fermentation stopped. The samples were analysed using gas chromatography (GC) with a permanent gas analysis column, in the order they were made.
# The trial fermenter used is an adjustable pressure fermenter system consisting of two arms (one closed and one open) of a manometric setup fastened to a backplate (not shown).
# Fermentation tube sizes varied from 50 ml to 250 ml. The closed arm was fixed to the supports and was closed at its top end by means of a removable stopper that has a small rubber or synthetic material septum embedded in the centre.
# Samples may be taken from the fermenter using a gas tight microlitre syringe. In use, according to one or more embodiments, the needle of the syringe is able to be inserted through the septum to take samples of fermenting fluid or gas for analysis by gas chromatography.
# The arms were free to move up or down so that the pressure in the closed arm could be brought to atmospheric pressure, which occurred when the fluid levels in both arms were at equal heights.
# For all early trials lab scale (50 ml) fermenters were used. Up to 20 fermenters could be used at the same time thus giving more reliable replications for statistical analysis. The tubes were held in a water bath held at a temperature of 36° C. with light excluded by a light-proof cover on the bath. The tubes were gently agitated during the fermentation.
# The synthetic material was produced by the oxidation of 2-methylnaphthalene to 2-methyl-1,4-naphthoquinone with chromium trioxide in sulphuric and acetic acids. Trials were completed using the above trial fermenter and method using rumen fluid as described in Example 1.
# To investigate this, fermentations were completed using the apparatus described in Example 1 and FIG. 1 using samples of fresh cow rumen fluid and dried grass, according to one or more embodiments.
# [4] = EFSA report 2013; cited from earlier work
# [5] = system: rumen regions AD, PD, PV, AV; assay: Natural fermentation and pH of fluid from different rumen regions; assay type: cell-based, cow; conditions: FIG. 13
# Excerpt: The different rumen regions were sampled by collecting the rumen of a slaughtered animal and making a cut with a sterile knife in a particular region and then palpating fluid samples using gloved hands from the cut. Cuts were made in the anterior dorsal region of the rumen (AD), the posterior region (PD), the posterior ventral (PV) and the anterior ventral (AV).
# FIG. 13 is a graph showing the results of natural fermentation (without the addition of substrate other than the material eaten by the cow before death), according to one or more embodiments.
# The pH difference between experimental, which were dosed with vitamin K1, and the controls, which were not dosed with vitamin K1, was greatest at position AD. The average pH in the control samples was 6.51 and in the experimental samples, the average pH was 6.34.
compound,measurement,setting,value
CC1=C(C/C=C(\C)CCC[C@H](C)CCC[C@H](C)CCCC(C)C)C(=O)c2ccccc2C1=O [vitamin K1],"CO2, of controls",[1],39.35%
same,"methane formation, of controls",[1],25.6%
same,"total gas volume, of controls",[1],25.6%
same,emitted methane in exhalant breath,"[2]; ewes drenched with tincture plus water, versus control sheep",significant reduction
same,ill effects after dosing,"[2]; ewes, drench",did not show any ill effects
same,percentage decrease in methane production compared to control sheep,"[2]; rams, drench, day 2",71%
same,"amount of emitted gasses, carbon dioxide and methane",[2]; treated versus control sheep,marked lessening
same,"CO2 volume produced by the fermentation, reduction compared to control samples",[3],83.4%
same,inhibition of vitamin K1 effects on reducing gas production by grass,[3]; grass fermented immediately after harvest,total
same,inhibition of vitamin K1 effects on reducing gas production by grass,[3]; older (3+ day old) grass,only a small inhibitory effect
same,gas volume produced,"[3]; Example 9, Trial 4, vitamin K1 and sulphide both added",consistent with and even slightly higher than control
same,methane emission reduction,[3]; further trials,66.7%
same,"reduction of total gas volume compared to controls, average",[3]; further trials,80.2%
same,"reduction of total gas volume compared to controls, maximum",[3]; further trials,94.5%
same,"reduction of total gas volume compared to controls, minimum",[3]; further trials,75.9%
same,"methane emission reduction, peak","[3]; further trials, under specific conditions",91%
same,risk to the environment,[4],not a risk to the environment
same,rumen region of greatest inhibition,[5],maximum inhibitory effect in the PV region
same,rate of methane production in rumen regions,[5]; natural fermentation without added substrate,lower the rate of methane production

# From patent US12263140B1, “Methods of reducing the production of greenhouse gases from animals” (AGRICULTURAL SCIENCES LIMITED, priority 2023, dated 2025)
